Results taken from patent US20240366560A1, “SMALL MOLECULE TREATMENT OF FATTY LIVER DISEASE AND HCC” (ScandiEdge Therapeutics AB, priority 2021, published 2024).

How the values were obtained:
[1] = test system: FASN; assay: FASN protein level by western blot in steatosis-induced HepG2, 7-day drug treatment; format: cell-based; conditions: steatosis-induced HepG2, 7 days of drug treatment, P<0.05, FIG. 2C
Protocol: WT HepG2 was included in this study and cultured by Roswell Park Memorial Institute (RPMI, R2405, Sigma Aldrich) 1640 Medium with 10% fetal bovine serum (FBS) and 1% penicillin-streptomycin (PS). To induce a steatosis model into WT HepG2 cells, high glucose Dulbecco's Modified Eagle Media (DMEM, D0822/D5671, Sigma-Aldrich) containing 10% FBS and 1% PS was used as medium for one week, together with 10 μg/mL insulin and 10 μM T0901317. All of cells were incubated in the incubator with 5% CO2 and 37° C. (Thermo SCIENTIFIC). Fresh medium was provided every two days.
As for drug-screening, different numbers of HepG2 cells were seeded for distinct experiments. More in details, 40,000 cells and 500,000 cells were used for 2-day-drug treatment in 96-well-plate and 6-well plate, respectively, while 80,000 cells and 300,000 cells were used for one-week drug treatment in 96-well plate and 6-well plate, respectively. Detailed drug dosages could be found in FIG. 5. Fresh medium was provided every two days.
Protein content levels were detected by western blot. After the respective treatment of drugs, the cell pellets were lysed in cell lytic M, followed by protein extraction from supernatant (10 min, 13,000r/min centrifuge). Extracted cell lysate was stored in −20° C. Proteins were quantified through Bovine albumin serum (BAS) standard curve with protein assay dye reagent (BIO-RAD). The proteins were separated by SDS-PAGE with 100v in 90 min by mini-protein TGX precast gels (4-15%, 15 wells, 15 μl/well, BIO-RAD), and then transfer to Mini PVDF transfer package through transfer system (Transfer-Turbo, BIO-RAD). After 30 min blocking with 5% skim milk in cold room (4° C.) and washing with TBST, membrane was cut by the size of interested proteins. Primary antibodies were added into the corresponding membrane sections for overnight binding. Then the membranes were washed with TBST, and the secondary antibodies were incubated for 1 h in cold room. The following antibody were used: (Goat pAb to Rb lg, ab205718, abcam; Rb pAb to beta-actin, ab8227, abcam; anti-pklr, HPA006653, SIGMA; Rb pAb to fatty acid synthase, ab99539, abcam). The bindings were imaged by immunostaining and machine (ImageQuant LAS 500). All antibodies were purchased from Abcam online, and βactin was used as global normalized protein. After measurement, the strength of signal for each protein was quantified by ImageJ. The background noise was removed, and all results were normalized by the levels of β-actin.
To further analyse the effect of these drugs on lipid accumulation via the DNL pathway, steatosis was induced to HepG2 by treating the cells with high glucose medium (DMEM), insulin and T0901317 (Hansmannel et al., 2006). […] Therefore, the effects of these two drugs on the de novo synthesis of lipids were investigated based on the steatosis-induced HepG2 model. […] Taken together, it was shown that BX-912 and JNK-IN-5A effectively alleviate the protein expression of PKLR and FASN as well as TG levels in HepG2 cell lines, and thus, it was decided to perform in vivo evaluations to test the effect of these two drugs.

[2] = test system: PKLR; assay: PKLR protein level by western blot in HepG2, 2-day drug treatment; format: cell-based; conditions: HepG2, two days of treatment, dosages per FIG. 5, P<0.05, FIG. 2A
Protocol: WT HepG2 was included in this study and cultured by Roswell Park Memorial Institute (RPMI, […], Sigma Aldrich) 1640 Medium with 10% fetal bovine serum (FBS) and 1% penicillin-streptomycin (PS). To induce a steatosis model into WT HepG2 cells, high glucose Dulbecco's Modified Eagle Media (DMEM, […]/[…], Sigma-Aldrich) containing 10% FBS and 1% PS was used as medium for one week, together with 10 μg/mL insulin and 10 μM T0901317. All of cells were incubated in the incubator with 5% CO2 and 37° C. (Thermo […]). Fresh medium was provided every two days. As for drug-screening, different numbers of HepG2 cells were seeded for distinct experiments. More in details, 40,000 cells and 500,000 cells were used for 2-day-drug treatment in 96-well-plate and 6-well plate, respectively, while 80,000 cells and 300,000 cells were used for one-week drug treatment in 96-well plate and 6-well plate, respectively. […] Fresh medium was provided every two days. Protein content levels were detected by western blot. After the respective treatment of drugs, the cell pellets were lysed in cell lytic M, followed by protein extraction from supernatant (10 min, 13,000r/min centrifuge). Extracted cell lysate was stored in -20° C. Proteins were quantified through Bovine albumin serum (BAS) standard curve with protein assay dye reagent (BIO-RAD). The proteins were separated by SDS-PAGE with 100v in 90 min by mini-protein TGX precast gels (4-15%, 15 wells, 15 μl/well, BIO-RAD), and then transfer to Mini PVDF transfer package through transfer system (Transfer-Turbo, BIO-RAD). After 30 min blocking with 5% skim milk in cold room (4° C.) and washing with TBST, membrane was cut by the size of interested proteins. Primary antibodies were added into the corresponding membrane sections for overnight binding. Then the membranes were washed with TBST, and the secondary antibodies were incubated for 1 h in cold room. The following antibody were used: (Goat pAb to Rb lg, ab205718, abcam; Rb pAb to beta-actin, ab8227, abcam; […]; Rb pAb to fatty acid synthase, ab99539, abcam). The bindings were imaged by immunostaining and machine (ImageQuant LAS 500). All antibodies were purchased from Abcam online, and βactin was used as global normalized protein. After measurement, the strength of signal for each protein was quantified by ImageJ. The background noise was removed, and all results were normalized by the levels of β-actin. To determine the inhibitory effects of these drugs on the expression level of PKLR, HepG2 was selected as the in vitro model for coherence. […] HepG2 cells were treated with these drugs for two days with different dosages due to their potential cellular toxicities (FIG. 5), and the PKLR protein level was the measured by western blotting. The level of protein expression of PKLR of the drug-treated groups was compared to that of the Ctrl group after normalizing with β-actin.

N#Cc1c(NC(=O)c2cccc3ccccc23)sc2c1CCCC2 [JNK-IN-5A, N-(3-cyano-4,5,6,7-tetrahydrobenzo [b]thien-2-yl)-1-naphthalenecarboxamide]
protein expression level of FASN [1]: significantly reduced | protein expression of PKLR vs Ctrl, normalized with β-actin [2]: significantly down-regulated

O=C(Nc1cccc(Nc2ncc(Br)c(NCCc3cnc[nH]3)n2)c1)N1CCCC1 [BX-912, N-[3-[[5-bromo-4-[[2-(1H-imidazol-5-yl)ethyl]amino]-2-pyrimidinyl]amino]phenyl]-1-pyrrolidinecarboxamide]
protein expression level of FASN [1]: significantly reduced | protein expression of PKLR vs Ctrl, normalized with β-actin [2]: significantly down-regulated
